Columns and labels:
Assay in all cases: Test E greenhouse herbicide test, pre- and postemergence
Assay type in all cases: in vivo
[1] = system: Italian ryegrass (Lolium multiflorum)
Method in brief: (§1)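 Greenhouse pots; preemergence on silt loam, postemergence on plants 1- to 4-leaf (2 to 18 cm) grown in peat, vermiculite and nutrient medium. Test chemicals formulated in non-phytotoxic solvent with surfactant. Ratings taken after 14 to 21 d.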

[2] = system: arrowleaf sida (Sida rhombifolia)
Method in brief: as §1

[3] = system: barnyardgrass (Echinochloa crus-galli)
Method in brief: as §1

corn (Zea mays) = system: corn (Zea mays)
Method in brief: as §1

[4] = system: dayflower (Virginia (VA) dayflower, Commelina virginica)
Method in brief: as §1

[5] = system: foxtail, green (green foxtail, Setaria viridis); conditions: Preemergence
Method in brief: as §1

[6] = system: johnsongrass (Sorghum halepense); conditions: Preemergence
Method in brief: as §1

[7] = system: lambsquarters (Chenopodium album); conditions: Preemergence
Method in brief: as §1

[8] = system: momingglory (Ipomoea coccinea); conditions: Preemergence
Method in brief: as §1

[9] = system: nutsedge, yellow (yellow nutsedge, Cyperus esculentus); conditions: Preemergence
Method in brief: as §1

[10] = system: pigweed, palmer (palmer pigweed, Amaranthus palmeri)
Method in brief: as §1

soybean (Glycine max) = system: soybean (Glycine max)
Method in brief: as §1

[11] = system: velvetleaf (Abutilon theophrasti); conditions: Preemergence
Method in brief: as §1

[12] = system: wild poinsettia (Euphorbia heterophylla)
Method in brief: as §1

[13] = 62 g ai/ha, Postemergence, scale 0 to 100 (0 no effect, 100 complete control)
[14] = 62 g ai/ha, Preemergence, scale 0 to 100 (0 no effect, 100 complete control)
[15] = 125 g ai/ha, Postemergence, scale 0 to 100 (0 no effect, 100 complete control)
[16] = 125 g ai/ha, Preemergence, scale 0 to 100 (0 no effect, 100 complete control)
[17] = 250 g ai/ha, Postemergence, scale 0 to 100 (0 no effect, 100 complete control)
[18] = Postemergence, 31 g ai/ha, visual, scale 0 no effect to 100 complete control
[19] = Preemergence, 31 g ai/ha, scale 0 to 100, 0 no effect, 100 complete control
[20] = Preemergence, 250 g ai/ha, visual, scale 0 no effect to 100 complete control
[21] = Preemergence, 125 g ai/ha, visual, scale 0 no effect to 100 complete control
[22] = 62 g ai/ha, scale 0 to 100 (0 no effect, 100 complete control)
[23] = 31 g ai/ha, scale 0 to 100, 0 no effect, 100 complete control
[24] = 125 g ai/ha, visual, scale 0 no effect to 100 complete control
[25] = 250 g ai/ha, visual, scale 0 no effect to 100 complete control
[26] = 125 g ai/ha, scale 0 to 100 (0 no effect, 100 complete control)

SMILES: CCc1sc2ccc(C)cc2c1-c1c(O)c(C)nn(C)c1=O [Compound 47]
- Plant response rating, Ryegrass, Italian [1, 13]: 0
- Plant response rating, Ryegrass, Italian [1, 14]: 30
- Plant response rating, Ryegrass, Italian [1, 15]: 0
- Plant response rating, Ryegrass, Italian [1, 16]: 30
- Plant response rating, Ryegrass, Italian [1, 17]: 10
- Plant response rating, Ryegrass, Italian [1, 18]: 0
- Plant response rating, Ryegrass, Italian [1, 19]: 5
- Plant response rating, Ryegrass, Italian [1, 20]: 50
- Plant response rating, Arrowleaf Sida [2, 13]: 50
- Plant response rating, Arrowleaf Sida [2, 14]: 0
- Plant response rating, Arrowleaf Sida [2, 15]: 60
- Plant response rating, Arrowleaf Sida [2, 17]: 60
- Plant response rating, Arrowleaf Sida [2, 18]: 40
- Plant response rating, Arrowleaf Sida [2, 19]: 0
- Plant response rating, Arrowleaf Sida [2, 21]: 75
- Plant response rating, Arrowleaf Sida [2, 20]: 90
- Plant response rating, Barnyardgrass [3, 13]: 30
- Plant response rating, Barnyardgrass [3, 14]: 0
- Plant response rating, Barnyardgrass [3, 15]: 40
- Plant response rating, Barnyardgrass [3, 17]: 60
- Plant response rating, Barnyardgrass [3, 18]: 10
- Plant response rating, Barnyardgrass [3, 19]: 0
- Plant response rating, Barnyardgrass [3, 21]: 50
- Plant response rating, Barnyardgrass [3, 20]: 95
- Plant response rating, Corn (corn (Zea mays); [13]): 5
- Plant response rating, Corn (corn (Zea mays); [14]): 0
- Plant response rating, Corn (corn (Zea mays); [15]): 5
- Plant response rating, Corn (corn (Zea mays); [17]): 20
- Plant response rating, Corn (corn (Zea mays); [18]): 0
- Plant response rating, Corn (corn (Zea mays); [19]): 0
- Plant response rating, Corn (corn (Zea mays); [21]): 0
- Plant response rating, Corn (corn (Zea mays); [20]): 0
- Plant response rating, Dayflower, VA [4, 13]: 5
- Plant response rating, Dayflower, VA [4, 14]: 0
- Plant response rating, Dayflower, VA [4, 15]: 0
- Plant response rating, Dayflower, VA [4, 17]: 10
- Plant response rating, Dayflower, VA [4, 18]: 0
- Plant response rating, Dayflower, VA [4, 19]: 0
- Plant response rating, Dayflower, VA [4, 21]: 0
- Plant response rating, Dayflower, VA [4, 20]: 80
- Plant response rating, Foxtail, Green [5, 22]: 20
- Plant response rating, Foxtail, Green [5, 23]: 0
- Plant response rating, Foxtail, Green [5, 24]: 30
- Plant response rating, Foxtail, Green [5, 25]: 70
- Plant response rating, Johnsongrass [6, 22]: 0
- Plant response rating, Johnsongrass [6, 23]: 0
- Plant response rating, Johnsongrass [6, 24]: 0
- Plant response rating, Johnsongrass [6, 25]: 20
- Plant response rating, Lambsquarters [7, 22]: 100
- Plant response rating, Lambsquarters [7, 23]: 100
- Plant response rating, Lambsquarters [7, 24]: 100
- Plant response rating, Lambsquarters [7, 25]: 100
- Plant response rating, Morningglory [8, 22]: 75
- Plant response rating, Morningglory [8, 26]: 100
- Plant response rating, Morningglory [8, 23]: 25
- Plant response rating, Morningglory [8, 25]: 100
- Plant response rating, Nutsedge, Yellow [9, 26]: 30
- Plant response rating, Nutsedge, Yellow [9, 23]: 0
- Plant response rating, Nutsedge, Yellow [9, 25]: 35
- Plant response rating, Pigweed, Palmer [10, 13]: 35
- Plant response rating, Pigweed, Palmer [10, 14]: 0
- Plant response rating, Pigweed, Palmer [10, 15]: 30
- Plant response rating, Pigweed, Palmer [10, 16]: 25
- Plant response rating, Pigweed, Palmer [10, 17]: 70
- Plant response rating, Pigweed, Palmer [10, 18]: 35
- Plant response rating, Pigweed, Palmer [10, 19]: 0
- Plant response rating, Pigweed, Palmer [10, 20]: 65
- Plant response rating, Soybean (soybean (Glycine max); [13]): 25
- Plant response rating, Soybean (soybean (Glycine max); [14]): 0
- Plant response rating, Soybean (soybean (Glycine max); [15]): 20
- Plant response rating, Soybean (soybean (Glycine max); [16]): 0
- Plant response rating, Soybean (soybean (Glycine max); [17]): 30
- Plant response rating, Soybean (soybean (Glycine max); [18]): 20
- Plant response rating, Soybean (soybean (Glycine max); [19]): 0
- Plant response rating, Soybean (soybean (Glycine max); [20]): 40
- Plant response rating, Velvetleaf [11, 26]: 75
- Plant response rating, Velvetleaf [11, 23]: 0
- Plant response rating, Velvetleaf [11, 25]: 100
- Plant response rating, Poinsettia, Wild [12, 13]: 15
- Plant response rating, Poinsettia, Wild [12, 14]: 0
- Plant response rating, Poinsettia, Wild [12, 15]: 25
- Plant response rating, Poinsettia, Wild [12, 16]: 0
- Plant response rating, Poinsettia, Wild [12, 17]: 30
- Plant response rating, Poinsettia, Wild [12, 18]: 10
- Plant response rating, Poinsettia, Wild [12, 19]: 0
- Plant response rating, Poinsettia, Wild [12, 20]: 20

Source: patent publication US10597388B2, “Pyridazinone herbicides” (FMC CORPORATION, priority 2014, dated 2020)
